“And” between values parts separate entries of the source, which are not always exact repeats. Identical values can stand only once.

Test [1] concerns the target T1, SBC2 (Homo sapiens, UniProt O14508).
T1 construct: SOCS2 (amino acids 32–198); His6 (N, cleaved yes); made in house; host or cells: E. coli BL21(DE3)
In words: Surface plasmon resonance (SPR) with SBC2 immobilized on the chip. The test is classed as binding. The source says: (§1) First, we decided to optimize the N-terminal region of 1 while maintaining the N-methylamide group at the C-terminus. To generate analogs rapidly, we employed a solid phase synthesis using methyl indole AM resin. After Fmoc deprotection, the resin was loaded with Fmoc-Tyr (PO(OBzl)2)-OH[29]. Subsequent coupling with various commercially available carboxylic acids and cleavage with TFA allowed the rapid synthesis of N-methylcarboxamide phosphotyrosines (Supplementary Fig. 1). We introduced different substituents at the N-terminus to cover a range of physicochemical properties (e.g. alicyclic, heterocyclic, aromatic with electron-withdrawing and electron-donating groups) to maximize potential interactions (see Table 1 for representative examples). Binding affinities of the synthesized compounds for SOCS2 were measured via two orthogonal biophysical binding assays: (1) surface plasmon resonance (SPR) with SBC2 immobilized on the chip (Supplementary Fig. 7); and (2) ^19F ligand-observed displacement NMR assays, providing two orthogonal biophysical measurements of dissociation constants (KD)[29],[31]. We found an excellent correlation between the KD values measured via the two techniques (Table 1). Para-substituted benzyl moieties yielded the greatest contributions to binding affinity and there were only slight differences between electron-withdrawing groups such as a methyl ester and electron-donating such as methoxy group.
SPR experiments were performed using a Biacore S200 instrument (GE Healthcare) in 20 mM HEPES pH 7.5, 150 mM NaCl, 1 mM TCEP, 0.005% Tween20, 2% DMSO buffer at 10 °C. Biotinylated SBC2 was immobilized onto a chip surface (the final surface density of biotinylated SBC2 was ~3000–4000 RU). AviTagged-SBC was biotinylated using BirA enzyme as per manufacturer’s protocol (Avidity). Compounds were serially diluted in the running buffer and injected individually: contact time 60 s, flow rate 30 μL/min, dissociation time 150 s, using a stabilization period of 30 s and syringe wash (50% DMSO) between injections. Data analysis was carried out using Biacore Evaluation Software (GE Healthcare). All data were double-referenced for reference surface and blank injection. The processed sensograms were fit to a steady-state affinity using a 1:1 binding model for KD estimation.

Test [2] deals with T1, SBC2. In words: Isothermal titration calorimetry (ITC), direct titration. Type of test: binding. The settings on record: for Kd: ITC KD, direct ITC, 298 K. How it is done:
Experiments were performed with ITC200 instrument (Malvern) in 100 mM HEPES pH 7.5, 50 mM NaCl, 0.5 mM TCEP at 298 K. The ITC titration consisted of 0.4 μl initial injection (discarded during data analysis) followed by 19 of 2 μl injections at 120 s interval between injections. 1 mM of the ligands in 2–4% DMSO were titrated into 100 μM SBC2. […] Binding data was subtracted from a control titration where ligand was titrated into buffer, and fitted using a one-set-of-site binding model to obtain dissociation constant (Kd), binding enthalpy (ΔH), and stoichiometry (N) using MicroCal PEAQ-ITC Analysis Software1.1.0.1262 and MicroCal ITC-ORIGIN Analysis Software 7.0 (Malvern).

The target of test [3] is T1, SBC2. In words: 19F ligand-observed displacement (CPMG) NMR assay. Type of test: binding. As to conditions: Table 1, n = 1.
Source text: as §1, with “We introduced different substituents at the N-terminus to cover a range of physicochemical properties (e.g. alicyclic, heterocyclic, aromatic with electron-withdrawing and electron-donating groups) to maximize potential interactions (see Table 1 for representative examples).” left out, “Para-substituted benzyl moieties yielded the greatest contributions to binding affinity and there were only slight differences between electron-withdrawing groups such as a methyl ester and electron-donating such as methoxy group.” left out
Experiments were performed using an Avance III 500 MHz Bruker spectrometer equipped with a 5 mm CPQCI 1H/19 F/13 C/15 N/D Z-GRD cryoprobe at 298 K as described previously. Spectra were recorded using 80 scans of a CPMG pulse sequence that attenuates broad resonances. […] All NMR data were processed and analyzed using TopSpin (Bruker). The dissociation constant was calculated as described previously.

The target of test [4] is GHR pY595 peptide (Homo sapiens) (UniProt P10912). The settings on record: cited from earlier work.
Where [5] appears, read: Table 2, second-round library, n = 1.

T1 sequence (O14508 32-198): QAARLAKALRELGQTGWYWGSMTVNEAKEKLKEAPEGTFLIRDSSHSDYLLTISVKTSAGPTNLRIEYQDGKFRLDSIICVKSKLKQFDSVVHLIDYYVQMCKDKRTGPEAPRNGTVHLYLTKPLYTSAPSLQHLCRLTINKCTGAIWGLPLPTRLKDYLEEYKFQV
T1 sequence (Q15370 1-104 partner limits assumed): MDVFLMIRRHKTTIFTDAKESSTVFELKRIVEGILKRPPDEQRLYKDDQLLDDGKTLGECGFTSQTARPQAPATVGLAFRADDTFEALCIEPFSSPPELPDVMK
T1 sequence (Q15369 17-112 partner limits assumed): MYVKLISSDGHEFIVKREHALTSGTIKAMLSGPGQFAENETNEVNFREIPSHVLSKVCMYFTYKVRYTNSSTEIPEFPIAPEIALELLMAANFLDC
SOCS2 SH2, sequence (O14508 45-159): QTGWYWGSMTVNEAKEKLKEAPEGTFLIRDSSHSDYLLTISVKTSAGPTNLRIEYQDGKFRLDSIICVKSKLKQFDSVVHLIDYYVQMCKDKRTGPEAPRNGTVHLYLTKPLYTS
GHR pY595 peptide (Homo sapiens), sequence (P10912 whole entry, looked up, tested part not stated): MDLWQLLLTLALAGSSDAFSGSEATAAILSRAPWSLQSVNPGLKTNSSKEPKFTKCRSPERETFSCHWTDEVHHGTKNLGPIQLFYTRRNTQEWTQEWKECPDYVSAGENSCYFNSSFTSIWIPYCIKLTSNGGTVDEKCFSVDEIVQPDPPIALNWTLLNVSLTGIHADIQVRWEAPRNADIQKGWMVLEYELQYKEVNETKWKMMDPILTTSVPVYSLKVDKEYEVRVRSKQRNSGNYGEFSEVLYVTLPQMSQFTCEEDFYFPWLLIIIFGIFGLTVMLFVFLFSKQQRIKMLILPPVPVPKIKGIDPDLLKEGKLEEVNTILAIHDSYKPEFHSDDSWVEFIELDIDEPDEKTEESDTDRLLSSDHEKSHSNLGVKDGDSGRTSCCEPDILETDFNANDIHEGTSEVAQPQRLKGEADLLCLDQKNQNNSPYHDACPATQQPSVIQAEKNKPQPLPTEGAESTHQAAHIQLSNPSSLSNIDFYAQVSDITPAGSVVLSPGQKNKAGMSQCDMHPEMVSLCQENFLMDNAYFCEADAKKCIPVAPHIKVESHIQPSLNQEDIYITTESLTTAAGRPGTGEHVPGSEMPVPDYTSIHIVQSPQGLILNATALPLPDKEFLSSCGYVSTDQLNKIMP

`CCc1cc(CNC(=O)[C@H](Cc2ccc(OP(=O)(O)O)cc2)NC(=O)Cc2ccc(F)cc2)ccc1F` [Compound 12, (S)-4-(3-((3-ethyl-4-fluorobenzyl)amino)-2-(2-(4-fluorophenyl)acetamido)-3-oxopropyl)phenyl phosphate] came in with a dissociation constant (Kd) on SBC2 [1] (setting [5]) of 2200 nM. In addition, on SBC2 [2], the “ITC ΔG” value is -8.59 kcal/mol; the “ITC ΔH” value is -8.16 kcal/mol; the “ITC −TΔS” value is -0.43 kcal/mol; the Kd was 500 nM and 510 nM.
For the compound `CNC(=O)[C@H](Cc1ccc(OP(=O)(O)O)cc1)NC(=O)Cc1ccc(F)cc1` [Compound 5], the Kd on SBC2 [3] stood at 32000 nM; on SBC2 [1] (Table 1, n = 1), 49000 nM.
Regarding `CNC(=O)[C@H](Cc1ccc(OP(=O)(O)O)cc1)NC(C)=O` [Compound 1], the Kd on SBC2 [3] is 186000 nM; at SBC2 [1] (Table 1, n = 1), 269000 nM; on SBC2 [2], 192000 nM and 190000 nM. The “weaker binding than the full phosphorylated peptide” value at SBC2 [2] turned out to be 100 fold.
In the case of `O=C(Cc1ccc(F)cc1)N[C@@H](Cc1ccc(OP(=O)(O)O)cc1)C(=O)NCc1ccc(F)cc1` [Compound 9, (S)-4-(3-((4-fluorobenzyl)amino)-2-(2-(4-fluorophenyl)acetamido)-3-oxopropyl)phenyl phosphate], on SBC2 [1] (SPR), the “improvement of binding affinity compared to 5” value was found to be 10 fold. This compound also registered a Kd at SBC2 [1] (setting [5]) of 4200 nM. For the same compound, at SBC2 [2], the “ITC ΔG” value was -7.65 kcal/mol, the “ITC −TΔS” value was -3.55 kcal/mol and the Kd came out at 2600 nM.
The compound `Cc1cc(CNC(=O)[C@H](Cc2ccc(OP(=O)(O)O)cc2)NC(=O)Cc2ccc(F)cc2)ccc1F` [Compound 11, (S)-4-(3-((4-fluoro-3-methylbenzyl)amino)-2-(2-(4-fluorophenyl)acetamido)-3-oxopropyl)phenyl phosphate] displayed a Kd at SBC2 [1] (setting [5]) of 2700 nM. In addition, on SBC2 [2], the “ITC ΔG” value is -8.23 kcal/mol, the “ITC ΔH” value is -5.25 kcal/mol, the “ITC −TΔS” value is -2.98 kcal/mol and the equilibrium dissociation constant (Kd) was determined as 1000 nM.
As for SOCS2 SH2 (from UniProt O14508), the dissociation constant Kd in test [4] is 1100 nM.
On SBC2 [1] (setting [5]), `C=CCc1cc(CNC(=O)[C@H](Cc2ccc(OP(=O)(O)O)cc2)NC(=O)Cc2ccc(F)cc2)ccc1F` [Compound 13] displayed a dissociation constant Kd of 2400 nM. Moreover, at SBC2 [2], the “ITC ΔG” value is -8.75 kcal/mol, the “ITC −TΔS” value is -1.62 kcal/mol and the Kd came to 380 nM.

Source of the values: paper PMC10564737, “Structure-based design of a phosphotyrosine-masked covalent ligand targeting the E3 ligase SOCS2” (Nature Communications, 2023).
